The text below walks through data of US9464064B2, “HCV helicase inhibitors and methods of use thereof” (University of Kansas, priority 2011, dated 2016).

For this test, the target named is T1, HCV NS3 helicase NS3h_1b(con1) (Hepatitis C virus genotype 1b, UniProt Q9WMX2).
T1 construct: truncated C-terminally His-tagged NS3 proteins lacking the N-terminal protease, called NS3h; His-tag (C); made in house
The test can be described thus: MBHA screen of NCI mechanistic set library at 20 μM (percent inhibition, compound interference). It counts as biochemical. The following applies: compounds at 20 μM; for Inh. (%) (Inhibition): calculated from Equation 1. The procedure, abridged: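 Molecular beacon-based DNA unwinding assay; compounds screened at 20 μM in triplicate, with DMSO-only negative and 500 nM dT20 positive controls. Fluorescence (ex 643/em 670 nm) was read before and 30 min after adding ATP to 1 mM. Percent inhibition came from the change relative to DMSO controls; interference from pre-ATP fluorescence versus DMSO controls.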

The mark [1] stands for this setting: MBHA with DNA substrate, assay interference calculated with Equation 2.
Setting [2] is: assay interference calculated with Equation 2 (fluorescence vs DMSO-only controls before ATP).

T1 sequence (Q9WMX2 1192-1657): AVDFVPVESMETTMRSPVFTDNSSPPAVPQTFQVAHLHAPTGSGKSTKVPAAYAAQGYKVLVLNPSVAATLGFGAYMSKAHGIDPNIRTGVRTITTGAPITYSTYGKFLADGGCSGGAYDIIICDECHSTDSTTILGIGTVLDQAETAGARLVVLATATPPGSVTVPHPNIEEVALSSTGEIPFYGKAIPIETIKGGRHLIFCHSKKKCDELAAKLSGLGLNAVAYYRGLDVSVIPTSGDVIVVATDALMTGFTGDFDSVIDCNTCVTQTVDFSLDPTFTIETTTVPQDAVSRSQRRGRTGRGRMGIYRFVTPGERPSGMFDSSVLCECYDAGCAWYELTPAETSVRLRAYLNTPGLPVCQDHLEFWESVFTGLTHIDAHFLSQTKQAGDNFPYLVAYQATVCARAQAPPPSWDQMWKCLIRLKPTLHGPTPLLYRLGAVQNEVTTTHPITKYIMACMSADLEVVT

`OCCNCN(CNCCO)c1nc(N(CNCCO)CNCCO)nc(N(CNCCO)CNCCO)n1` [Compound 653000]: under setting [1], the “Int.* (Ratio) (Interference)” value is 0.97 Ratio. In addition, for the setting “MBHA with DNA substrate”, the “Inh. (%) (Inhibition)” value was 1.2%.
The matching figures for `Cc1cc(=O)[nH]c(NN2C(Cl)C(=O)C2c2cccc([N+](=O)[O-])c2)n1` (stereo not drawn) [Compound 653010]: 0.88 Ratio and 17.5%.
As for `Cc1cc(=O)[nH]c(NN2C(Cl)C(=O)C2c2cccc(Cl)c2)n1` (stereo not drawn) [Compound 653012], the “Int.* (Ratio) (Interference)” value under setting [1] is on record as 0.91 Ratio. The “Inh. (%) (Inhibition)” value (MBHA with DNA substrate) is 17.7%.
In the case of `Cc1cc(=O)[nH]c(NN2C(Cl)C(=O)C2c2c(O)ccc3ccccc23)n1` (stereo not drawn) [Compound 653016], the “Inh. (%) (Inhibition)” value (MBHA with a DNA substrate) was −40.6%. For the same compound, the “Int.* (Ratio) (Interference)” value under setting [2] is 1.02 Ratio.
The matching figures for `C[CH2][Ge]([CH2]C)([CH2]C)[O]C(=O)CCC(=O)[O][Ge]([CH2]C)([CH2]C)[CH2]C` [Compound 653558]: −3.1% and 0.98 Ratio.
For `Cc1cc(NC(=O)NC(=O)c2ccccc2NC(=O)CN)ccc1Oc1ncc(Br)cn1.Cl` [Compound 654259], the “Int.* (Ratio) (Interference)” value under setting [1] is 0.98 Ratio. For the same compound, the “Inh. (%) (Inhibition)” value (MBHA with DNA substrate) is on record as 1.1%.
Turning to `COC(=O)c1ccc(NCc2cc(O)ccc2O)cc1` [Compound 654705], where the note is “MBHA with a DNA substrate”, the “Inh. (%) (Inhibition)” value is listed as −6.0%. The “Int.* (Ratio) (Interference)” value under setting [2] was 1.02 Ratio.
As for `CCN1CCC(O)(/C=C/c2ccc(C)cc2)C(C(=O)/C=C/c2ccc(C)cc2)C1.Cl` (stereo not drawn) [Compound 657298], the “Int.* (Ratio) (Interference)” value under setting [1] is 1.01 Ratio. The “Inh. (%) (Inhibition)” value (MBHA with DNA substrate) was −17.3%.
As to `COc1ccccc1/C=C1\Sc2scc(-c3cccc([N+](=O)[O-])c3)[n+]2C1=O` [Compound 657446], the “Inh. (%) (Inhibition)” value (MBHA with a DNA substrate) is reported as −21.5%. Besides, the “Int.* (Ratio) (Interference)” value under setting [2] is given as 1.00 Ratio.
On to `Cc1cc(O)c(/C=N/C(N)=S)c(=O)o1` [Compound 657449], for which, under “MBHA with a DNA substrate”, the “Inh. (%) (Inhibition)” value is recorded as −25.4%. For the same compound, the “Int.* (Ratio) (Interference)” value under setting [2] is recorded as 1.00 Ratio.
The matching figures for `Oc1[nH]c2ccccc2c1N=Nc1nc(-c2ccc(Br)cc2)cs1` [Compound 657456]: −6.1% and 0.85 Ratio.
`COc1cc(/C=C2\S/C(=N/Nc3nc(-c4ccc(Br)cc4)cs3)NC2=O)cc(OC)c1OC` [Compound 657457]: the “Int.* (Ratio) (Interference)” value under setting [1] is given as 1.06 Ratio. The “Inh. (%) (Inhibition)” value (MBHA with DNA substrate) is on record as −14.5%.
The matching figures for `O=C1/C(=C/c2ccc([N+](=O)[O-])cc2)Sc2scc(-c3cccc([N+](=O)[O-])c3)[n+]21.[Cl-]` [Compound 657598]: 0.94 Ratio and −14.8%.
The corresponding values for `CCCn1c(=O)c2ccccc2[n+]2c(-c3ccc([N+](=O)[O-])cc3)csc12.[Br-]` [Compound 657603] are 0.94 Ratio and −15.1%.
Turning to `Cc1cccc(C)c1NC(=O)C(=O)C(c1ccccc1Cl)S(=O)(=O)Cc1ccccc1Cl` (stereo not drawn) [Compound 657722], for the setting “MBHA with a DNA substrate”, the “Inh. (%) (Inhibition)” value is reported as 9.1%. For the same compound, the “Int.* (Ratio) (Interference)” value under setting [2] is recorded as 0.93 Ratio.
For the compound `COc1ccc(CCN(C)CCCC(C#N)(c2ccc(OC)c(OC)c2)C(C)C)cc1OC.Cl` (stereo not drawn) [Compound 657799], under setting [1], the “Int.* (Ratio) (Interference)” value is listed as 0.98 Ratio. The “Inh. (%) (Inhibition)” value (MBHA with DNA substrate) is 5.8%.
As to `O=[N+]([O-])c1ccc2c(c1)/C(=N/N=C1c3ccccc3Cc3ccccc31)c1cc([N+](=O)[O-])cc([N+](=O)[O-])c1-2` [Compound 658139], the “Int.* (Ratio) (Interference)” value under setting [1] is 1.06 Ratio. The “Inh. (%) (Inhibition)” value (MBHA with DNA substrate) is given as −14.6%.
Regarding `O=C1C=C(N2CCNCC2)C(=O)c2c(O)ccc(O)c21` [Compound 658144], the “Inh. (%) (Inhibition)” value (MBHA with a DNA substrate) is −5.5%. For the same compound, the “Int.* (Ratio) (Interference)” value under setting [2] is 0.78 Ratio.
`CC(=O)c1sc2[n+](c1C)C(=O)/C(=C\c1ccccc1Cl)S2` [Compound 658285]: the “Int.* (Ratio) (Interference)” value under setting [1] is on record as 0.90 Ratio. The “Inh. (%) (Inhibition)” value (MBHA with DNA substrate) was 3.1%.
Regarding `CCOC(=O)c1sc2[n+](c1C)C(=O)/C(=C/c1ccc([N+](=O)[O-])cc1)S2.[Cl-]` [Compound 658293], the “Inh. (%) (Inhibition)” value (MBHA with a DNA substrate) is −22.4%. Besides, the “Int.* (Ratio) (Interference)” value under setting [2] was 1.08 Ratio.
Take `CCn1c(O)c(C=Nc2ccccc2)s/c1=N/Nc1ncc(CC(=O)Nc2ccccc2C)s1` [Compound 658350]: the “Int.* (Ratio) (Interference)” value under setting [1] is 1.00 Ratio. Besides, the “Inh. (%) (Inhibition)” value (MBHA with DNA substrate) is listed as −18.3%.
The matching figures for `CN(C)CCCCN1CCc2c(n(C)c3ccccc23)C1=O` [Compound 658388]: 1.09 Ratio and −18.7%.
`CC(=O)N=C1N(/C=C2\C(=O)Oc3ccccc3C2=O)C(=O)/C(=C/c2ccccc2Cl)N1C` [Compound 658494]: the “Int.* (Ratio) (Interference)” value under setting [1] is 0.95 Ratio. Moreover, for the setting “MBHA with DNA substrate”, the “Inh. (%) (Inhibition)” value is listed as 6.7%.
Regarding `COc1ccc(NC(=O)C(=O)/C=C(\O)c2ccccc2)cc1` [Compound 658709], the “Int.* (Ratio) (Interference)” value under setting [1] is on record as 0.90 Ratio. Where the note is “MBHA with DNA substrate”, the “Inh. (%) (Inhibition)” value is −7.9%.
As to `O=C(CC(O)(C(F)(F)F)C(F)(F)Cl)CC(O)(C(F)(F)F)C(F)(F)Cl` (stereo not drawn) [Compound 659174], where the note is “MBHA with a DNA substrate”, the “Inh. (%) (Inhibition)” value is reported as 8.7%. Further, the “Int.* (Ratio) (Interference)” value under setting [2] was 0.92 Ratio.
On to `CN=c1sc2c(n1C)C(=O)c1ccccc1C2=O` [Compound 659501], for which the “Inh. (%) (Inhibition)” value (MBHA with a DNA substrate) is reported as −6.6%. The “Int.* (Ratio) (Interference)” value under setting [2] is recorded as 1.06 Ratio.
Turning to `Cl.O=C1C=CC(=O)c2c(O)c(N3CCN(CCOCCO)CC3)c(Br)c(O)c21` [Compound 659999], the “Int.* (Ratio) (Interference)” value under setting [1] is given as 0.44 Ratio. Also, the “Inh. (%) (Inhibition)” value (MBHA with DNA substrate) is reported as 6.1%.
Turning to `Cc1nn(-c2ccccc2)c2c1CC(=O)Nc1ccccc1-2` [Compound 662553], for the setting “MBHA with a DNA substrate”, the “Inh. (%) (Inhibition)” value is −4.6%. Under setting [2], the “Int.* (Ratio) (Interference)” value is 1.02 Ratio.
For `C=C(Cl)C(Cl)(CBr)CCC(Br)C(C)(C)Cl` (stereo not drawn) [Compound 662825], the “Int.* (Ratio) (Interference)” value under setting [1] is 0.93 Ratio. Further, the “Inh. (%) (Inhibition)” value (MBHA with DNA substrate) is on record as 14.5%.
The corresponding values for `COc1ccc(NC2=NCCO2)c2c1CCCC2` [Compound 663996] are 1.08 Ratio and −2.7%.
The matching figures for `O=C1C(C(O)(C(F)(F)F)C(F)(F)F)CCC1C(O)(C(F)(F)F)C(F)(F)F` (stereo not drawn) [Compound 664181]: 0.84 Ratio and 14.5%.
On to `CN(NC1=NCCO1)c1ccc2ccccc2c1` [Compound 664286], for which the “Inh. (%) (Inhibition)” value (MBHA with a DNA substrate) is recorded as −22.3%. Moreover, the “Int.* (Ratio) (Interference)” value under setting [2] is 1.18 Ratio.
The corresponding values for `CC(Cc1ccccc1)NC1=NCCO1` (stereo not drawn) [Compound 664298] are 9.8% and 0.96 Ratio.
Consider `CC(=O)C(N1CCCCC1)C(O)(C(F)(F)F)C(F)(F)F` (stereo not drawn) [Compound 664327], for which, under setting [1], the “Int.* (Ratio) (Interference)” value is listed as 0.82 Ratio. Further, the “Inh. (%) (Inhibition)” value (MBHA with DNA substrate) is recorded as 25.5%.
As to `O/N=C(\CC(O)(C(F)(F)F)C(F)(F)F)c1cccc(Cl)c1` [Compound 664329], the “Int.* (Ratio) (Interference)” value under setting [1] is on record as 1.01 Ratio. Besides, the “Inh. (%) (Inhibition)” value (MBHA with DNA substrate) is −14.5%.
The corresponding values for `CC1=CC(=O)c2cccc(NC3=NCCO3)c21` [Compound 664331] are 1.03 Ratio and −1.8%.
